Blank lines part the entries; values can stand above or below the compound they belong to.
Columns and labels:
amyloid beta (Aβ1–40) [1] = target: T1, amyloid beta (Aβ1–40) (Homo sapiens, UniProt P05067); assay: FRET titration of ternary complex with 4G8 and PE-labelled secondary antibody; dot blot; fluorescence probe in competition; assay type: binding; set-up: gene APP; Aβ1–40 monomers (also oligomers and aggregates); with 4G8 antibody
amyloid beta (Aβ1–40) [2] = target: T1, amyloid beta (Aβ1–40); assay: fluorescence competition with CRANAD-3; also antibody dot blot, MSD, Simoa and ThT aggregation assay; assay type: binding; set-up: gene APP; Aβ1–40 monomers
amyloid beta (Aβ1–40) [3] = target: T1, amyloid beta (Aβ1–40); assay: concentration-dependent 4G8 dot blot (one-site binding fit); ANS fluorescence; FRET; MSD/Simoa; set-up: gene APP; Aβ1–40; fragment Aβ17–24 also tested by ANS; with 4G8 antibody

T1 sequence (P05067 672-711): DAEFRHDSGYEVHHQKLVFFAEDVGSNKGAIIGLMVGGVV

Compound: CCN(CC)c1ccc(/C=C/C2=CC(/C=C/c3ccc(N(CC)CC)nc3)=[O+][B-](F)(F)O2)cn1 [CRANAD-3]
- FRET titration of ternary complex with 4G8 and PE-labelled secondary antibody; d (amyloid beta (Aβ1–40) [1]): enhanced antibody recognition was due to the formation of the ternary complex of CRANAD-3, Aβs and 4G8 antibody

- Ki (amyloid beta (Aβ1–40) [2]): 4.16 ± 1.04 nM
Compound: Cc1ccc(NC(=O)Nc2cc(C(F)(F)F)ccc2F)cc1Nc1ccc2c(c1)NC(=O)/C2=C\c1ccc[nH]1 [GNF-5837]

- EC50 (amyloid beta (Aβ1–40) [3]): 121 nM
Compound: CRANAD-17

Reference: publication PMC9278120, “Epitope alteration by small molecules and applications in drug discovery” (Chemical Science, 2022)
